Reference: the Kinase Knowledgebase extract (Sharma et al. 2016)

Columns and labels:
PIK3CA (human) [1] = molecular target: PIK3CA (human) (UniProt P42336); assay: Enzyme Assay
PIK3CB (Human) [2] = molecular target: PIK3CB (Human) (UniProt P42338); assay: Enzyme Assay
PIK3CD (Human) [3] = molecular target: PIK3CD (Human) (UniProt O00329); assay: Enzyme Assay
PIK3CG (human) = PIK3CG (human) (UniProt P48736); assay: Enzyme Assay
PIK3CD (Human) [4] = molecular target: PIK3CD (Human) (UniProt O00329); assay: Cell-Based Assay; settings: raji
PIK3CA (human) [5] = molecular target: PIK3CA (human) (UniProt P42336); assay: Cell-Based Assay; settings: skov-3
PIK3CB (Human) [6] = molecular target: PIK3CB (Human) (UniProt P42338); assay: Cell-Based Assay; settings: 786-o

Sequence of PIK3CD (Human) (O00329 whole entry, looked up): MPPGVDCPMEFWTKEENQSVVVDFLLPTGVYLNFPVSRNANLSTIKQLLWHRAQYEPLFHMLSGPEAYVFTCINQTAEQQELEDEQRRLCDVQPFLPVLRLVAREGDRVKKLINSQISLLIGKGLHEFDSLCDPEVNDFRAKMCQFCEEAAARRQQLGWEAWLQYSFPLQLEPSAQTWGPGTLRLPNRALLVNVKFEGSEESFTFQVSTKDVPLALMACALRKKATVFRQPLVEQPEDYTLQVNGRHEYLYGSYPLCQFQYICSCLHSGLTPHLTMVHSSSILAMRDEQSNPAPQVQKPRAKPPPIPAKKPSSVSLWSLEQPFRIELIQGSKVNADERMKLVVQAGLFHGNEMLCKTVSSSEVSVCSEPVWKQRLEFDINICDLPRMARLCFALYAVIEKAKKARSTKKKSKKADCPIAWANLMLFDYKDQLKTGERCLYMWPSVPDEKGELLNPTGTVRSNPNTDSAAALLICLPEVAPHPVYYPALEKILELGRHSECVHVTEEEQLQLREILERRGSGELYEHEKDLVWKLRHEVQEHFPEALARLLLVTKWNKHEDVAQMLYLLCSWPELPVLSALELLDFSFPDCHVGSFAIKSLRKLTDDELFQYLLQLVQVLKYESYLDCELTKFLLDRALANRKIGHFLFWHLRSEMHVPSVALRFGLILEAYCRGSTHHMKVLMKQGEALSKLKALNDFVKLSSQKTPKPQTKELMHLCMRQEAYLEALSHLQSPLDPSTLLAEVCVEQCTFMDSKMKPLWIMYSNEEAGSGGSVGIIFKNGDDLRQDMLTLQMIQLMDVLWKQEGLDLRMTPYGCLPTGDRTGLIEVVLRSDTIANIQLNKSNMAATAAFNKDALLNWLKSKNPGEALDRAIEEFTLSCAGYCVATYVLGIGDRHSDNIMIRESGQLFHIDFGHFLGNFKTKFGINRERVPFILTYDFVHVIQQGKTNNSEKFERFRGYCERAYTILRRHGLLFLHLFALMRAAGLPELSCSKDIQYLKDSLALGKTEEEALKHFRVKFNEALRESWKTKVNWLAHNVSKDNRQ
Sequence of PIK3CB (Human) (P42338 whole entry, looked up): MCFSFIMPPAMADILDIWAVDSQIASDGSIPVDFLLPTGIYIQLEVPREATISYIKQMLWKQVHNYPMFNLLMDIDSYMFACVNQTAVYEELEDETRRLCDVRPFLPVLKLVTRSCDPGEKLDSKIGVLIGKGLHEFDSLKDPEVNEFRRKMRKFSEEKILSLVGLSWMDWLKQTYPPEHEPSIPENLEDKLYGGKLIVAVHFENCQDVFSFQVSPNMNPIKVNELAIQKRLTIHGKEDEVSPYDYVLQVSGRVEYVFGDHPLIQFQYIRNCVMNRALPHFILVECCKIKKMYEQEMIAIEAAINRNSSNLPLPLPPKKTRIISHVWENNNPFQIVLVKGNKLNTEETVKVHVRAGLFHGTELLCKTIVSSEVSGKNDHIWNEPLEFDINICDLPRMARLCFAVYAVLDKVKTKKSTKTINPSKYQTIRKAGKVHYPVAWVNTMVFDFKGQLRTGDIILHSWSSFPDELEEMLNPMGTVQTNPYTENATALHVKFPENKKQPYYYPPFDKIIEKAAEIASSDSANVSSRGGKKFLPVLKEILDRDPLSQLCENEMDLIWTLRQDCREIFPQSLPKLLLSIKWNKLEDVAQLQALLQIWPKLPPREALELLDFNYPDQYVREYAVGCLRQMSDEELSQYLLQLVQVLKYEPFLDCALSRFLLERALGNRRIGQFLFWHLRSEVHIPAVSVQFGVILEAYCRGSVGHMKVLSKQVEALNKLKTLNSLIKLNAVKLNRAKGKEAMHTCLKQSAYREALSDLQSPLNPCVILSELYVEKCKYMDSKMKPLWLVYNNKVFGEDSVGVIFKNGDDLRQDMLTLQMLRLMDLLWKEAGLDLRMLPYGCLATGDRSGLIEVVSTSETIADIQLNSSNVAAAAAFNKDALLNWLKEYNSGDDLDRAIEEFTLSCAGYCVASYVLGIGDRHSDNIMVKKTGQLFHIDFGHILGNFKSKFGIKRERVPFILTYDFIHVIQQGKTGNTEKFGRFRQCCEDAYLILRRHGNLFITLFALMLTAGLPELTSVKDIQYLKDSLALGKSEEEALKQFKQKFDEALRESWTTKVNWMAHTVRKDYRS
Sequence of PIK3CA (human) (P42336 whole entry, looked up): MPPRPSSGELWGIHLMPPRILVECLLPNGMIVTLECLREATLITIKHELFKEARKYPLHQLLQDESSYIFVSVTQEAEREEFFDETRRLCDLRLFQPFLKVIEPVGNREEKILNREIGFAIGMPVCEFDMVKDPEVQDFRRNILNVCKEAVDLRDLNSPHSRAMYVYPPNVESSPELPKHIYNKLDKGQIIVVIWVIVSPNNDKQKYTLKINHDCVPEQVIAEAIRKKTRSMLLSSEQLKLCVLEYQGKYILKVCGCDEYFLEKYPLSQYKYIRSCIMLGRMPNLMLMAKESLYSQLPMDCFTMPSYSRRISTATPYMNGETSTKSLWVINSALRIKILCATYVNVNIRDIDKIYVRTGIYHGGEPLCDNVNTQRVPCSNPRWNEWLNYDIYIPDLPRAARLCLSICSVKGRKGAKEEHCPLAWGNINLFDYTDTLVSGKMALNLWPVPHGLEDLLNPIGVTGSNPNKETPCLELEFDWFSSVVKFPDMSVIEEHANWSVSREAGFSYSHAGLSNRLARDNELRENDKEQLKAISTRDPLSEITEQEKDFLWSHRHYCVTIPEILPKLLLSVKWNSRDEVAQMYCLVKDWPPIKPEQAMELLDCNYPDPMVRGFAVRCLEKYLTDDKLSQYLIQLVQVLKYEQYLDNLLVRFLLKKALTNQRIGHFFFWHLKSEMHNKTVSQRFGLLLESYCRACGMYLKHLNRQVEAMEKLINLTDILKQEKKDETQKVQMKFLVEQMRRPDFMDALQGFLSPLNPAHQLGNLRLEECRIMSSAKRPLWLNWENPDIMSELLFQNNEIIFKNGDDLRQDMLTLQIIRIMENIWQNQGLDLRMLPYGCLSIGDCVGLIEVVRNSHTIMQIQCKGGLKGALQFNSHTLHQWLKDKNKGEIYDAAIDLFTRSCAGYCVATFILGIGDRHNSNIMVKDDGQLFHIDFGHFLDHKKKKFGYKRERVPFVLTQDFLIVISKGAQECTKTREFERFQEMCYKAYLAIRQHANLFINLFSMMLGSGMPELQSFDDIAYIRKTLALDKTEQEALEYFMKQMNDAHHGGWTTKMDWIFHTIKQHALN
Sequence of PIK3CG (human) (P48736 whole entry, looked up): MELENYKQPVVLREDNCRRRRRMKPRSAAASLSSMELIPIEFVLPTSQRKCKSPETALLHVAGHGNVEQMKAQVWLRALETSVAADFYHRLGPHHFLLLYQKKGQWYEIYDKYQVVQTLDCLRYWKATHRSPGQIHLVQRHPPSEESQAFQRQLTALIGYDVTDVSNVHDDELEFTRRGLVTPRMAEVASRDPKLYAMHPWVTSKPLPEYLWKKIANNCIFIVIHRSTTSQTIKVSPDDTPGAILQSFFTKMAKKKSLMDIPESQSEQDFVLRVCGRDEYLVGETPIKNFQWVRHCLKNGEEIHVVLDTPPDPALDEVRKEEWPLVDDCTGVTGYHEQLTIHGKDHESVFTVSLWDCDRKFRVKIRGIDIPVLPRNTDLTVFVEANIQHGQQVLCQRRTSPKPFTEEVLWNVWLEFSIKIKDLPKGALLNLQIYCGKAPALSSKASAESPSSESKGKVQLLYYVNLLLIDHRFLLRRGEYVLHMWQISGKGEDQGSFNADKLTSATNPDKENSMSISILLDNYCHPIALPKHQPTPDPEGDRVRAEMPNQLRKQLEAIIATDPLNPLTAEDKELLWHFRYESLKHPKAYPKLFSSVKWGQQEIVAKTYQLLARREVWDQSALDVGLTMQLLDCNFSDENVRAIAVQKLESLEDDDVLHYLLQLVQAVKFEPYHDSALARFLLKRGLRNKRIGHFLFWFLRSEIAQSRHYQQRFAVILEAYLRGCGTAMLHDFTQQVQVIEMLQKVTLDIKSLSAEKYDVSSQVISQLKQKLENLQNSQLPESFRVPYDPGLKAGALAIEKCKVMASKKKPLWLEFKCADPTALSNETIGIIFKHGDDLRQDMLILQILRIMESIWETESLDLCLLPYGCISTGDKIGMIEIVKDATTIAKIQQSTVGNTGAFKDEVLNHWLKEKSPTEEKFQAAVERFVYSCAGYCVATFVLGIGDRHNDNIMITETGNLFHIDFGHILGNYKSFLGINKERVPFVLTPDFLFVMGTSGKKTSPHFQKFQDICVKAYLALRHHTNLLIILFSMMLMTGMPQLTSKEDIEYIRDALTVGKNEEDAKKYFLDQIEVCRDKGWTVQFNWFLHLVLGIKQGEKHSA

| Compound | IC50 (PIK3CA (human) [1]) | IC50 (PIK3CB (Human) [2]) | IC50 (PIK3CD (Human) [3]) | IC50 (PIK3CG (human)) | IC50 (PIK3CD (Human) [4]) | IC50 (PIK3CA (human) [5]) | IC50 (PIK3CB (Human) [6]) |
| --- | --- | --- | --- | --- | --- | --- | --- |
| C[C@H](Nc1ncnc2scnc12)c1cc2cccc(C(=O)N(C)C)c2c(=O)n1-c1ccccc1 | > 10000 nM | > 10000 nM | 100 to 1000 nM | > 10000 nM | – | – | – |
| Cc1nc2c(N[C@@H](C)c3cc4cccc(Cl)c4c(=O)n3-c3ccccc3)ncnc2s1 | > 10000 nM | > 10000 nM | > 10000 nM | > 10000 nM | – | – | – |
| C[C@H](Nc1ncnc2scnc12)c1cc2cccc(-c3cnc4nccnc4c3)c2c(=O)n1-c1ccccc1 | > 10000 nM | > 10000 nM | < 100 nM | 100 to 1000 nM | – | – | – |
| Cc1nc2c(N[C@@H](C)c3cc4cccc(Cl)c4c(=O)n3-c3cccc(F)c3)ncnc2s1 | > 10000 nM | > 10000 nM | – | > 10000 nM | – | – | – |
| C[C@H](Nc1ncnc2scnc12)c1cc2cccc(-c3cnc4ccccc4c3)c2c(=O)n1-c1ccccc1 | 100 to 1000 nM | 100 to 1000 nM | < 100 nM | < 100 nM | – | – | – |
| C[C@H](Nc1ncnc2scnc12)c1cc2cccc(Cl)c2c(=O)n1-c1ccccc1 | 100 to 1000 nM | < 100 nM | < 100 nM | < 100 nM | – | – | – |
| C[C@H](Nc1ncnc2scnc12)c1cc2cccc(C(=O)N3CCOCC3)c2c(=O)n1-c1ccccc1 | > 10000 nM | > 10000 nM | 100 to 1000 nM | – | – | – | – |
| CNC(=O)c1cccc2cc([C@H](C)Nc3ncnc4scnc34)n(-c3ccccc3)c(=O)c12 | > 10000 nM | > 10000 nM | 100 to 1000 nM | > 10000 nM | – | – | – |
| C[C@H](Nc1ncnc2scnc12)c1cc2cccc(-c3cnc4[nH]ccc4c3)c2c(=O)n1-c1ccccc1 | 100 to 1000 nM | 100 to 1000 nM | < 100 nM | < 100 nM | – | – | – |
| C[C@H](Nc1ncnc2scnc12)c1cc2cccc(-c3ccc(C(F)(F)F)nc3)c2c(=O)n1-c1ccccc1 | > 10000 nM | > 10000 nM | < 100 nM | 100 to 1000 nM | – | – | – |
| C[C@H](Nc1ncnc2scnc12)c1cc2cccc(-c3ccccn3)c2c(=O)n1-c1ccccc1 | > 10000 nM | > 10000 nM | < 100 nM | 100 to 1000 nM | – | – | – |
| C[C@H](Nc1ccnc2scnc12)c1cc2cccc(Cl)c2c(=O)n1-c1ccccc1 | 100 to 1000 nM | 100 to 1000 nM | < 100 nM | < 100 nM | – | – | – |
| C[C@H](Nc1ncnc2scnc12)c1cc2cccc(Cl)c2c(=O)n1-c1cccc(F)c1 | 100 to 1000 nM | < 100 nM | < 100 nM | < 100 nM | – | – | – |

Other lines, results leading:

| IC50 (PIK3CA (human) [1]) | IC50 (PIK3CB (Human) [2]) | IC50 (PIK3CD (Human) [3]) | IC50 (PIK3CG (human)) | IC50 (PIK3CD (Human) [4]) | IC50 (PIK3CA (human) [5]) | IC50 (PIK3CB (Human) [6]) | Compound |
| --- | --- | --- | --- | --- | --- | --- | --- |
| – | > 10000 nM | < 100 nM | 100 to 1000 nM | < 100 nM | – | – | C[C@H](Nc1ncnc2scnc12)c1cc2cccc(-c3cncc(N)c3)c2c(=O)n1-c1ccccc1 |
| 100 to 1000 nM | 100 to 1000 nM | < 100 nM | < 100 nM | – | – | – | C[C@H](Nc1nc(N)nc2scnc12)c1cc2cccc(-c3cnn(C)c3)c2c(=O)n1-c1ccccc1 |
| 100 to 1000 nM | – | < 100 nM | < 100 nM | < 100 nM | 100 to 1000 nM | – | C[C@H](Nc1ncnc2scnc12)c1cc2cccc(-c3cnn(C)c3)c2c(=O)n1-c1ccccc1 |
| > 10000 nM | 100 to 1000 nM | < 100 nM | > 10000 nM | – | – | – | C[C@H](Nc1ncnc2scnc12)c1cc2cccc(Cl)c2c(=O)n1CCN1CCCC1 |
| > 10000 nM | > 10000 nM | 100 to 1000 nM | > 10000 nM | – | – | – | C[C@H](Nc1ncnc2scnc12)c1cc2cccc(-c3cn(C)cn3)c2c(=O)n1-c1ccccc1 |
| 100 to 1000 nM | 100 to 1000 nM | < 100 nM | < 100 nM | – | – | – | C[C@H](Nc1ncnc2scnc12)c1cc2cccc(-c3ccc(N)nc3)c2c(=O)n1C1CC1 |
| – | – | < 100 nM | 100 to 1000 nM | < 100 nM | 100 to 1000 nM | 100 to 1000 nM | COc1ncc(-c2cccc3cc([C@H](C)Nc4ncnc5scnc45)n(-c4ccon4)c(=O)c23)cn1 |
| – | – | < 100 nM | 100 to 1000 nM | < 100 nM | 100 to 1000 nM | 100 to 1000 nM | CC(C)n1c([C@H](C)Nc2ncnc3scnc23)cc2cccc(-c3ccc(=O)n(C)c3)c2c1=O |
| 100 to 1000 nM | < 100 nM | < 100 nM | < 100 nM | – | – | – | C[C@H](Nc1ncnc2scnc12)c1cc2cccc(Cl)c2c(=O)n1C1CC1 |
| – | – | < 100 nM | < 100 nM | < 100 nM | – | – | COc1ncc(-c2cccc3cc([C@H](C)Nc4ncnc5scnc45)n(-c4ccccc4)c(=O)c23)cn1 |
| > 10000 nM | > 10000 nM | 100 to 1000 nM | > 10000 nM | < 100 nM | – | – | Cc1ncc(-c2cccc3cc([C@H](C)Nc4ncnc5scnc45)n(-c4ccon4)c(=O)c23)cn1 |
| > 10000 nM | > 10000 nM | 100 to 1000 nM | > 10000 nM | < 100 nM | – | – | CC(C)n1c([C@H](C)Nc2ncnc3scnc23)cc2cccc(-c3ccnnc3)c2c1=O |
| > 10000 nM | 100 to 1000 nM | < 100 nM | 100 to 1000 nM | < 100 nM | – | – | C[C@H](Nc1ncnc2scnc12)c1cc2cccc(Cl)c2c(=O)n1-c1ccon1 |
| 100 to 1000 nM | 100 to 1000 nM | < 100 nM | 100 to 1000 nM | – | – | – | COc1cncc(-c2cccc3cc([C@H](C)Nc4ncnc5scnc45)n(C4CC4)c(=O)c23)c1 |
| < 100 nM | 100 to 1000 nM | < 100 nM | < 100 nM | – | – | – | COc1cncc(-c2cccc3cc([C@H](C)Nc4ncnc5scnc45)n(-c4ccccc4)c(=O)c23)c1 |
| 100 to 1000 nM | 100 to 1000 nM | < 100 nM | < 100 nM | – | – | – | C[C@H](Nc1ncnc2scnc12)c1cc2cccc(-c3cnn(C)c3)c2c(=O)n1C1CC1 |
